Experimental data taken from PubChem BioAssay (NCI).
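Protocol summary: plate cells (96-well), add compound at 5 concentrations, incubate 48 h, interpolate endpoints linearly. At the GI50, growth is halved. Definition used: TGI = concentration required for complete inhibition of growth.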

Columns and labels:
Assay in all cases: DTP human tumour cell line panel, 48 h
SW-620 colon = system: SW-620 colon
CCRF-CEM leukemia = system: CCRF-CEM leukemia
HOP-92 NSCLC = system: HOP-92 NSCLC
OVCAR-8 ovarian = system: OVCAR-8 ovarian
MCF7 breast = system: MCF7 breast
HCT-116 colon = system: HCT-116 colon
NCI-H460 lung = system: NCI-H460 lung
786-0 renal = system: 786-0 renal
SNB-75 CNS = system: SNB-75 CNS
BT-549 breast = system: BT-549 breast
MALME-3M melanoma = system: MALME-3M melanoma
SF-539 CNS = system: SF-539 CNS
SK-MEL-28 melanoma = system: SK-MEL-28 melanoma
A549 NSCLC = system: A549 NSCLC
SNB-19 CNS = system: SNB-19 CNS
SK-MEL-5 melanoma = system: SK-MEL-5 melanoma
T-47D breast = system: T-47D breast
HCC-2998 colon = system: HCC-2998 colon
TK-10 renal = system: TK-10 renal
HCT-15 colon = system: HCT-15 colon
M14 melanoma = system: M14 melanoma
U251 CNS = system: U251 CNS
HS 578T breast = system: HS 578T breast
HT29 colon = system: HT29 colon
SR leukemia = system: SR leukemia
EKVX NSCLC = system: EKVX NSCLC
MOLT-4 leukemia = system: MOLT-4 leukemia
MDA-MB-231 breast = system: MDA-MB-231 breast
K-562 leukemia = system: K-562 leukemia
HL-60(TB) leukemia = system: HL-60(TB) leukemia
KM12 colon = system: KM12 colon
HOP-62 NSCLC = system: HOP-62 NSCLC
NCI-H522 lung = system: NCI-H522 lung
COLO 205 colon = system: COLO 205 colon
IGROV1 ovarian = system: IGROV1 ovarian
RXF 393 renal = system: RXF 393 renal
LOX IMVI melanoma = system: LOX IMVI melanoma
NCI-H226 lung = system: NCI-H226 lung
OVCAR-5 ovarian = system: OVCAR-5 ovarian
DU-145 prostate = system: DU-145 prostate
RPMI-8226 leukemia = system: RPMI-8226 leukemia
PC-3 prostate = system: PC-3 prostate
OVCAR-4 ovarian = system: OVCAR-4 ovarian
UACC-62 melanoma = system: UACC-62 melanoma
MDA-MB-435 = system: MDA-MB-435
NCI/ADR-RES ovarian = system: NCI/ADR-RES ovarian
UACC-257 melanoma = system: UACC-257 melanoma
SK-OV-3 ovarian = system: SK-OV-3 ovarian
UO-31 renal = system: UO-31 renal
SF-268 CNS = system: SF-268 CNS
OVCAR-3 ovarian = system: OVCAR-3 ovarian
A498 renal = system: A498 renal
SF-295 CNS = system: SF-295 CNS
ACHN renal = system: ACHN renal
SN12C renal = system: SN12C renal
NCI-H23 lung = system: NCI-H23 lung

Structure (SMILES): O=CN1N=C(c2ccc(Cl)cc2)CC1c1cccc(Nc2ccnc3cc(Cl)ccc23)c1 (configuration not stated)
- GI50 (SW-620 colon): 1.61 µM
- TGI (SW-620 colon): 24.2 µM
- GI50 (CCRF-CEM leukemia): 1.42 µM
- TGI (CCRF-CEM leukemia): 23.1 µM
- GI50 (HOP-92 NSCLC): 1.45 µM
- TGI (HOP-92 NSCLC): > 100 µM
- GI50 (OVCAR-8 ovarian): 1.92 µM
- TGI (OVCAR-8 ovarian): 29.1 µM
- GI50 (MCF7 breast): 0.866 µM
- TGI (MCF7 breast): 16 µM
- GI50 (HCT-116 colon): 1.2 µM
- TGI (HCT-116 colon): 4.02 µM
- GI50 (NCI-H460 lung): 1.86 µM
- TGI (NCI-H460 lung): 11.9 µM
- GI50 (786-0 renal): 2.96 µM
- TGI (786-0 renal): 14.5 µM
- GI50 (SNB-75 CNS): 1.7 µM
- TGI (SNB-75 CNS): > 100 µM
- GI50 (BT-549 breast): 1.78 µM
- TGI (BT-549 breast): 15.4 µM
- GI50 (MALME-3M melanoma): 1.27 µM
- TGI (MALME-3M melanoma): 7.25 µM
- GI50 (SF-539 CNS): 1.69 µM
- TGI (SF-539 CNS): 5.03 µM
- GI50 (SK-MEL-28 melanoma): 3.15 µM
- TGI (SK-MEL-28 melanoma): 31.2 µM
- GI50 (A549 NSCLC): 2.03 µM
- TGI (A549 NSCLC): 94.2 µM
- GI50 (SNB-19 CNS): 4.19 µM
- TGI (SNB-19 CNS): > 100 µM
- GI50 (SK-MEL-5 melanoma): 0.54 µM
- TGI (SK-MEL-5 melanoma): 1.93 µM
- GI50 (T-47D breast): 0.817 µM
- TGI (T-47D breast): 17.7 µM
- GI50 (HCC-2998 colon): 3.12 µM
- TGI (HCC-2998 colon): 35.3 µM
- GI50 (TK-10 renal): 2.34 µM
- TGI (TK-10 renal): 21.1 µM
- GI50 (HCT-15 colon): 1.36 µM
- TGI (HCT-15 colon): > 100 µM
- GI50 (M14 melanoma): 1.55 µM
- TGI (M14 melanoma): 13.5 µM
- GI50 (U251 CNS): 2.47 µM
- TGI (U251 CNS): 13.6 µM
- GI50 (HS 578T breast): 3.23 µM
- TGI (HS 578T breast): > 100 µM
- GI50 (HT29 colon): 1.28 µM
- TGI (HT29 colon): 7.61 µM
- GI50 (SR leukemia): 0.404 µM
- TGI (SR leukemia): 3.76 µM
- GI50 (EKVX NSCLC): 1.59 µM
- TGI (EKVX NSCLC): > 100 µM
- GI50 (MOLT-4 leukemia): 1.13 µM
- TGI (MOLT-4 leukemia): 11 µM
- GI50 (MDA-MB-231 breast): 2.74 µM
- TGI (MDA-MB-231 breast): 39.2 µM
- GI50 (K-562 leukemia): 0.388 µM
- TGI (K-562 leukemia): 10.2 µM
- GI50 (HL-60(TB) leukemia): 1.27 µM
- TGI (HL-60(TB) leukemia): 4.49 µM
- GI50 (KM12 colon): 1.22 µM
- TGI (KM12 colon): 76.5 µM
- GI50 (HOP-62 NSCLC): 1.21 µM
- TGI (HOP-62 NSCLC): 16.1 µM
- GI50 (NCI-H522 lung): 1.12 µM
- TGI (NCI-H522 lung): 11.9 µM
- GI50 (COLO 205 colon): 1.43 µM
- TGI (COLO 205 colon): 4.51 µM
- GI50 (IGROV1 ovarian): 1.44 µM
- TGI (IGROV1 ovarian): > 100 µM
- GI50 (RXF 393 renal): 1.4 µM
- TGI (RXF 393 renal): 5.87 µM
- GI50 (LOX IMVI melanoma): 1.29 µM
- TGI (LOX IMVI melanoma): 3.42 µM
- GI50 (NCI-H226 lung): 1.87 µM
- TGI (NCI-H226 lung): 57.7 µM
- GI50 (OVCAR-5 ovarian): 9.42 µM
- TGI (OVCAR-5 ovarian): > 100 µM
- GI50 (DU-145 prostate): 2.8 µM
- TGI (DU-145 prostate): > 100 µM
- GI50 (RPMI-8226 leukemia): 0.611 µM
- TGI (RPMI-8226 leukemia): 4.19 µM
- GI50 (PC-3 prostate): 1.69 µM
- TGI (PC-3 prostate): > 100 µM
- GI50 (OVCAR-4 ovarian): 0.638 µM
- TGI (OVCAR-4 ovarian): 16.7 µM
- GI50 (UACC-62 melanoma): 1.14 µM
- TGI (UACC-62 melanoma): 19.6 µM
- GI50 (MDA-MB-435): 0.377 µM
- TGI (MDA-MB-435): 17.2 µM
- GI50 (NCI/ADR-RES ovarian): 0.784 µM
- TGI (NCI/ADR-RES ovarian): > 100 µM
- GI50 (UACC-257 melanoma): 1.47 µM
- TGI (UACC-257 melanoma): 20.9 µM
- GI50 (SK-OV-3 ovarian): 2.9 µM
- TGI (SK-OV-3 ovarian): > 100 µM
- GI50 (UO-31 renal): 1.7 µM
- TGI (UO-31 renal): > 100 µM
- GI50 (SF-268 CNS): 2.73 µM
- TGI (SF-268 CNS): > 100 µM
- GI50 (OVCAR-3 ovarian): 1.1 µM
- TGI (OVCAR-3 ovarian): 14.5 µM
- GI50 (A498 renal): 0.977 µM
- TGI (A498 renal): 8.97 µM
- GI50 (SF-295 CNS): 0.504 µM
- TGI (SF-295 CNS): 9.75 µM
- GI50 (ACHN renal): 2.64 µM
- TGI (ACHN renal): > 100 µM
- GI50 (SN12C renal): 3.99 µM
- TGI (SN12C renal): > 100 µM
- GI50 (NCI-H23 lung): 1.07 µM
- TGI (NCI-H23 lung): > 100 µM
